# Legend:
# IS-CD8+ T cells = assay: Homing of DiI-labeled IS-CD8+ T cells into the pancreatic islets of NOD mice; type: in vivo; conditions: Example 3: inhibitor i.p. before cells; 24 h; SB-3CT and EGCG at much higher concentrations than AG3340
# Experimental: Fluorescent Tracing and Morphometric Analysis—For trafficking studies, IS-CD8^+ T cells were incubated at 1×10^7 cells/ml for 30 min at 37° C. in the dark in complete Click's medium containing 5% fetal calf serum and 0.0075 mg/ml of the fluorescent dye 1,1′-didodecyl-3,3,3′,3′-tetramethylindocarbocyanine perchlorate (DiI; Molecular Probes, Eugene, Oreg.). After incubation, the cells were washed three times with phosphatebuffered saline to remove excess DiI. Labeled IS-CD8^+ cells (1×10^7 cells) were injected intravenously in 0.2 ml of phosphate-buffered saline into irradiated (725 rads, 24 h in advance) NOD mice. Mice were sacrificed 24 h after injection of DiI-labeled cells. The spleen and the pancreata were excised and fixed in 0.1 M periodate-lysine-paraformaldehyde phosphate buffer. The organs were next sucrose-saturated, freeze-molded in OCT compound (Sakura Finetek Inc., Torrance, Calif.), and freeze-sectioned. 7-μm-thick cryostat sections of the entire pancreas were prepared at 60-μm intervals using a Leica CM1900 cryotom. Distribution of DiI-labeled CD8^+ cells within the islets was examined using a fluorescent microscope. At least 100 individual islets per mouse (4-5 mice/experimental group) were examined. The characteristic morphology of the islets is easily identified on the cryosections. DiI-labeled cells were counted within the area relevant to each individual islet (see FIG. 3 for a representative image; the islet-relevant area is depicted by the solid white line, and the islet boundaries are shown by the white dotted line). The position of each IS-CD8^+ labeled cell was determined relative to the islet boundary. The labeled cells localized within the islet boundary were considered to be “inside,” whereas the labeled cells adjacent to the islet but outside of the islet boundary were considered to be “at the entrance.” This method has been described in substantial detail (Savinov, A. Y., et al. (2003), and Savinov, A. Y., et al. (2001), which are herein incorporated by reference in their entirety for their teaching of these methods).
# Fluorescent tracing and morphometric analysis—For trafficking studies, IS-CD8^+ T cells were incubated at 1×10^7 cells/ml for 30 min at 37° C. in the dark in the complete Click's medium containing 5% FCS and 0.0075 mg/ml of fluorescent dye 1,1′-didodecyl-3,3,3′,3′-tetramethylindocarbocyanine perchlorate (DiI; Molecular Probes). After incubation, the cells were washed three times with PBS to remove excess DiI. Labeled IS-CD8^+ cells (1×10^7 cells) were intravenously injected in 0.2 ml of PBS into irradiated (725 Rad, 24 h in advance) NOD mice. Mice were sacrificed 24 h after injection of DiI-labeled cells. […] In 24 h, the spleen and the pancreata were excised and fixed in 0.1 M periodate-lysine-paraformaldehyde phosphate buffer. The organs were next sucrose-saturated, freeze-molded in OCT compound (Sakura Finetek Inc.) and freeze-sectioned. 7-μm-thick cryostat sections of the entire pancreas were prepared at the 60 μm intervals using a Leica CM1900 cryotom. Distribution of DiI-labeled CD8^+ cells within the islets was examined using a fluorescent microscope. At least 100 individual islets per mouse, 4-5 mice per each experimental group, were examined. The characteristic morphology of the islets is easily identified on the cryosections. DiI-labeled cells were counted within the area relevant to each individual islet. The position of each IS-CD8^+ labeled cell was determined relative to the islet boundary. […]
# NOD mice = assay: Adoptively transferred diabetes in NOD mice (IS-CD8+ cells); type: in vivo; conditions: Example 3: i.p. 30 min prior to cells, then every other day; inhibitor diluted to 4 mg/ml
# Experimental: IS-CD8^+ cells were labeled with DiI and then injected in NOD mice. In 24 h, the labeled cells with their intra-islet location were counted in the cryostat sections of the entire pancreas. […] IS-CD8^+ cells were injected in NOD mice. […] PBS containing […] DMSO was used as a vehicle control. The onset of diabetes was monitored daily by measuring urine glucose levels with the Diastix reagent strips. Mice with urine glucose levels of ≧2000 mg/dl for 3 consecutive days were considered diabetic. * and **, p=0.02 and p=0.015 by Fisher's test, respectively.
# Mice were monitored for 21 days. […] The onset of diabetes was identified by assessing urine glucose levels with Diastix® strips (Bayer). Mice with urine glucose levels of >2000 mg/dl for 3 consecutive days were considered diabetic. […] The level of glucose in the urine closely follows that in the blood (Traisman, H. S., and Greenwood, R. D. (1973)). The measurement of glucose in urine is a widely accepted method to follow the development of diabetes in NOD mice (Pomerleau, D. P., et al. (2005)).
# MT1-MMP = target: T1, MT1-MMP (Mus musculus, UniProt P53690); assay: MT1-MMP-dependent MMP-2 activation in adherent IS-CD8+ cells, gelatin zymography; type: cell-based, NOD mouse; set-up: inhibition of MMP-2 activation: dose or concentration left out as unconfirmed
# T1 construct: Endogenous MT1-MMP is latent in non-adherent IS-CD8^+ cells; endogenous in cells; host or cells: IS-CD8+ T cells (TGNFC8 clone, NOD mouse), adherent to gelatin
# Experimental: MT1-MMP-dependent MMP-2 Activation and Gelatin Zymography—IS-CD8^+ cells (1×10^6) were either allowed to adhere for 4 h in serum-free unsupplemented Click's medium to plastic coated with 2% gelatin or kept in solution. Under these experimental conditions, the vast majority of cells became attached to gelatin. In 4 h, media samples (30 μl each) were withdrawn and analyzed by gelatin zymography (Deryugina, E. I., et al. (2001)) to identify the proteolytic activity and the activation status of MMP-2 naturally synthesized by IS-CD8^+ cells. Where indicated, cells were supplemented with external purified pro-MMP-2 (20 ng). Pro-MMP-2 was isolated from a conditioned medium of p2AHT2A72 cells derived from an HT1080 fibrosarcoma cell line sequentially transfected with the E1A and MMP-2 cDNAs (Strongin, A. Y., et al. (1995)).
# MT1-MMP-dependent MMP-2 activation and gelatin zymography—IS-CD8^+ cells (1×10^6) were either allowed to adhere for 4 h in serum-free unsupplemented Click's medium to the plastic coated with 2% gelatin or kept in solution. In 18 h, media samples (30 μl each) were withdrawn and analyzed by gelatin zymography (Deryugina, E. I., et al. (2001)) to identify the proteolytic activity and the activation status of MMP-2 naturally synthesized by IS-CD8^+ cells. […] Pro-MMP-2 was isolated from a conditioned medium of p2AHT2A72 cells derived from an HT1080 fibrosarcoma cell line sequentially transfected with the E1A and MMP-2 cDNAs (Strongin, A. Y., et al. (1995)).
# [1] = system: CD44 shedding in IS-CD8+ cells; assay: CD44 shedding in adherent IS-CD8+ cells, Western blotting; type: cell-based, NOD mouse
# Experimental: Western Blotting—IS-CD8^+ cells were surface biotinylated for 1 h at 4° C. with 0.1 mg/ml sulfo-NHS-LC-biotin (Pierce, Rockford, Ill.). Following washes to remove biotin, cells were co-incubated for 2 h with MT1-MMP-CAT in serum-free, unsupplemented Click's medium. The cells were then lysed with 50 mM N-octyl-β-D-glucopyranoside in phosphate-buffered saline supplemented with 1 mM CaCl2, 1 mM MgCl2, and protease inhibitor mixture containing phenylmethylsulfonyl fluoride (1 mM) and aprotinin, pepstatin, and leupeptin (1 μg/ml each). Biotin-labeled CD44 was captured from the cell lysate and from the medium aliquots on streptavidin-agarose beads. The captured samples were examined by Western blotting with the CD44 (clone IM7.8.1) antibody to determine the released, soluble, CD44 ectodomain in the medium samples and the residual, membrane-anchored, cellular CD44 in the cell lysates.
# Western blotting—IS-CD8^+ cells were surface biotinylated for 1 hr at 4° C. with 0.1 mg/ml of sulfo-NES-LC-biotin (Pierce). Following washes to remove biotin, the labeled cells were allowed to adhere in serum-free medium to plastic coated with 2% type I collagen/gelatin for 4 h or were kept in suspension. Under these experimental conditions, the vast majority of the cells became attached to gelatin. […] The cells were then lysed with 50 mM N-octyl-β-D-glucopyranoside in PBS supplemented with 1 mM CaCl2, 1 mM MgCl2, and protease inhibitor cocktail containing phenylmethylsulfonyl fluoride (1 mM) and aprotinin, pepstatin, and leupeptin (1 μg/ml each). Biotin-labeled CD44 was captured from the cell lysate and from the medium aliquots on streptavidine-Agarose beads. The captured samples were examined by Western blotting with the CD44 (clone IM7.8.1) antibody to determine the released, soluble, CD44 ectodomain in the medium samples and the residual, membrane-anchored, cellular CD44 in the cell lysates.
# MMP-2 = target: T2, MMP-2 (Homo sapiens, UniProt P08253); conditions: preclinical studies; cited from earlier work
# T2 sequence (P08253 110-660): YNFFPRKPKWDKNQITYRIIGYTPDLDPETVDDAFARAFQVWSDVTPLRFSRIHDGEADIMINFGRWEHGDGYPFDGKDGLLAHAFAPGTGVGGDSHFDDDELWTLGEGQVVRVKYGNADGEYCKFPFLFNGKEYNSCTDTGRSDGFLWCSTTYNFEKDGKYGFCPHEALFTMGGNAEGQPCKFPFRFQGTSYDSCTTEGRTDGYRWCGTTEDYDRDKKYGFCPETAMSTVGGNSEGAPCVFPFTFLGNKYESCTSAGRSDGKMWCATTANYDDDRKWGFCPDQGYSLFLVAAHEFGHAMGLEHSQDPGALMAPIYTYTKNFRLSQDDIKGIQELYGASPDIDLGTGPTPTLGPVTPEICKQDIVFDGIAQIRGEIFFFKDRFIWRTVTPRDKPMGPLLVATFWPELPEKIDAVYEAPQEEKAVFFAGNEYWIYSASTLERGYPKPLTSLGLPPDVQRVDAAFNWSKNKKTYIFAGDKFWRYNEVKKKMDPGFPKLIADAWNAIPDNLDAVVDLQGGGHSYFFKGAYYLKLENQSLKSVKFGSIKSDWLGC
# MMP-9 = MMP-9 (Homo sapiens, UniProt P14780); conditions: preclinical studies; cited from earlier work
# MMP-9, sequence (P14780 94-707, species assumed): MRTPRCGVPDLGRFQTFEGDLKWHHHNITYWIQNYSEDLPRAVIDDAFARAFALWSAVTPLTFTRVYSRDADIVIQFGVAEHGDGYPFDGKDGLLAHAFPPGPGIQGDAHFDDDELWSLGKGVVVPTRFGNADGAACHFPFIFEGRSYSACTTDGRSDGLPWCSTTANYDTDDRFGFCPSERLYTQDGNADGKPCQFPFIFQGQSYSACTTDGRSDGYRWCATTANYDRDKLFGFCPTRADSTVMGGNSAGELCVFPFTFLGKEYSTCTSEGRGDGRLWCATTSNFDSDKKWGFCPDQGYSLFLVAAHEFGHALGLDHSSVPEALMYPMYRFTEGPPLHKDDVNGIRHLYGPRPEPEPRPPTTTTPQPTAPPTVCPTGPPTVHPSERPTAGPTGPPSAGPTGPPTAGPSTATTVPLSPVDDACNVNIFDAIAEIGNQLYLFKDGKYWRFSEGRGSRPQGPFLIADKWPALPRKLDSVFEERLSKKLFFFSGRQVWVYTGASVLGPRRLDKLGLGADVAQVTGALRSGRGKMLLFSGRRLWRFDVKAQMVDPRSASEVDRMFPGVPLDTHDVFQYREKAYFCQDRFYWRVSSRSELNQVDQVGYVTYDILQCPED
# [2] = human TIMP proteins; cited from earlier work
# [3] = cited from earlier work
molecule,measurement,setting,value
"O=C(O[C@@H]1Cc2c(O)cc(O)cc2O[C@@H]1c1cc(O)c(O)c(O)c1)c1cc(O)c(O)c(O)c1 [EGCG, (−)-epigallocatechin 3-gallate]",homing of IS-CD8+ cells inside the islets,IS-CD8+ T cells,did not affect
same,delay of the transferred diabetes onset,NOD mice,no delay
same,inhibition of MMP-2 activation,MT1-MMP; Example 3: EGCG,partial inhibition
same,effect on CD44 proteolysis,[1]; Example 3: EGCG 500 mM,without any significant effect
CNC(=O)[C@@H](NC(=O)[C@H](CC(C)C)NC(=O)[C@@H](S)CCN1C(=O)N(C)C(C)(C)C1=O)C(C)(C)C [BMS-275291],inhibitory activity against MMP-2,MMP-2,potent inhibitory activity
same,inhibitory activity against MMP-9,MMP-9,potent inhibitory activity
O=S(=O)(CC1CS1)c1ccc(Oc2ccccc2)cc1 (stereo not drawn) [SB-3CT],homing of IS-CD8+ cells inside the islets,IS-CD8+ T cells,did not affect
same,delay of the transferred diabetes onset,NOD mice,no delay
same,activation of MMP-2 in adherent cells,MT1-MMP; Example 3: inhibitors added for 18 h,no effect
same,shedding of CD44 in adherent cells,[1]; Example 3,no effect
TIMP-1: native tissue inhibitor of MMP; a poor inhibitor of MT1-MMP,activation of MMP-2 in adherent cells,"MT1-MMP; Example 2: AG3340 50 μM, TIMP-1 and TIMP-2 100 ng/ml, 18 h",no effect
same,shedding of CD44 in adherent cells,"[1]; Example 2: AG3340 50 μM, TIMP-1 and TIMP-2 100 ng/ml",minor but noticeable inhibition
same,isoelectric point,[2],8.00
COc1ccc(S(=O)(=O)N(Cc2cccnc2)[C@@H](C(=O)NO)C(C)C)cc1 [CGS-27023A],"plasma concentrations relative to in vitro IC50s for MMP-2,-3 and -9",[3]; clinically tolerable doses,severalfold greater
same,"time for which plasma concentrations above the in vitro IC50s for MMP-2,-3 and -9 were sustained after dosing",[3]; clinically tolerable doses,> 10 h
same,dose at which major toxic effects (cutaneous and musculoskeletal toxicity) were encountered,"[3]; oral, continuous dosing, 150 to 600 mg in divided doses",exceeding 300 mg twice a day
"TIMP-4: native tissue inhibitor of MMP, 22 kDa, SEQ ID NO:6 (protein, UniProt Q99727 30-224, looked up) Metalloproteinase inhibitor 4: CSCAPAHPQQHICHSALVIRAKISSEKVVPASADPADTEKMLRYEIKQIKMFKGFEKVKDVQYIYTPFDSSLCGVKLEANSQKQYLLTGQVLSDGKVFIHLCNYIEPWEDLSLVQRESLNHHYHLNCGCQITTCYTVPCTISAPNECLWTDWLLERKLYGYQAQHYVCMKHVDGTCSWYRGHLPLRKEFVDIVQP",isoelectric point,[2],7.34
"TIMP-3: native tissue inhibitor of MMP, SEQ ID NO:4 (protein) MTPWLGLIVLLGSWSLGDWGAEACTCSPSHPQDAFCNSDIVIRAKVVGKKLVKEGPFGTLVYTIKQMKMYRGFTKMPHVQYIHTEASESLCGLKLEVNKYQYLLTGRVYDGKMYTGLCNFVERWDQLTLSQRKGLNYRYHLGCNCKIKSCYYLPCFVTSKNECLWTDMLSNFGYPGYQSKHYACIRQKGGYCSWYRGWAPPDKSIINATDP",isoelectric point,[2],9.04

# From patent US20070203244A1, “INHIBITORS OF MEMBRANE TYPE-1 MATRIX METALLOPROTEINASE FOR THE TREATMENT OF INSULIN-DEPENDENT DIABETES MELLITUS” (priority 2006, published 2007)
